Measurements reported in ChEMBL document CHEMBL5291721, “A preclinical secondary pharmacology resource illuminates target-adverse drug reaction associations of marketed drugs” (Nat Commun, 2023).

What was measured:
[1] = biological target: Sodium-dependent dopamine transporter (Homo sapiens, UniProt Q01959)
Thromboxane A2 receptor [2] = biological target: T1, Thromboxane A2 receptor (Homo sapiens, UniProt P21731); format: functional, cell-based
T1 sequence (P21731 whole entry): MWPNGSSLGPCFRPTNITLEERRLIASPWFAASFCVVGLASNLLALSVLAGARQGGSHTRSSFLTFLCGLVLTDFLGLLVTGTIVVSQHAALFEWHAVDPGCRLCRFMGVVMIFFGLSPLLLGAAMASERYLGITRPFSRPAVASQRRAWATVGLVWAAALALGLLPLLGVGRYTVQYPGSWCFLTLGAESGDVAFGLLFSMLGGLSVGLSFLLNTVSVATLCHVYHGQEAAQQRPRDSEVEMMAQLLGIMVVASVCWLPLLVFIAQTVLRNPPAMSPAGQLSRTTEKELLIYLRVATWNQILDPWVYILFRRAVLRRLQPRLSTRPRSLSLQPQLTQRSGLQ

Prothrombin = Prothrombin (Homo sapiens, UniProt P00734); format: functional
Bile salt export pump = Bile salt export pump (Homo sapiens, UniProt O95342); format: functional
[3] = biological target: Sodium-dependent noradrenaline transporter (Homo sapiens, UniProt P23975)
Acetylcholinesterase = Acetylcholinesterase (Homo sapiens, UniProt P22303); format: functional
[4] = biological target: 5-hydroxytryptamine receptor 2B (Homo sapiens, UniProt P41595); format: functional, cell-based
D(1A) dopamine receptor = D(1A) dopamine receptor (Homo sapiens, UniProt P21728)
[5] = biological target: Prostaglandin G/H synthase 1 (Homo sapiens, UniProt P23219); format: functional
[6] = biological target: T2, Amine oxidase [flavin-containing] A (Homo sapiens, UniProt P21397); format: functional
T2 sequence (P21397 whole entry): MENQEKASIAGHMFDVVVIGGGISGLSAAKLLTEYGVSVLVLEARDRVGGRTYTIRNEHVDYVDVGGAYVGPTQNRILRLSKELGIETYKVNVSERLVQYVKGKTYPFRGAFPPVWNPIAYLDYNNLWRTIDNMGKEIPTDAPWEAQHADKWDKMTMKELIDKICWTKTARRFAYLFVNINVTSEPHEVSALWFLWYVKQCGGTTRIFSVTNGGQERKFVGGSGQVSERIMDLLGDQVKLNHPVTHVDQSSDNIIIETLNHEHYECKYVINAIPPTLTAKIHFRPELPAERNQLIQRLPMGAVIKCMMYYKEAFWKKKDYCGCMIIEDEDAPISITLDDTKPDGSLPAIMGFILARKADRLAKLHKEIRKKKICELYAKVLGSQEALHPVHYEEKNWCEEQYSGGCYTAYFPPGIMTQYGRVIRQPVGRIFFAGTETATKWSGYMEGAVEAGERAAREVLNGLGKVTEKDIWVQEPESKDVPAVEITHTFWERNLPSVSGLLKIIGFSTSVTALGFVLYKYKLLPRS

[7] = biological target: T3, Muscarinic acetylcholine receptor M2 (Homo sapiens, UniProt P08172)
T3 sequence (P08172 whole entry): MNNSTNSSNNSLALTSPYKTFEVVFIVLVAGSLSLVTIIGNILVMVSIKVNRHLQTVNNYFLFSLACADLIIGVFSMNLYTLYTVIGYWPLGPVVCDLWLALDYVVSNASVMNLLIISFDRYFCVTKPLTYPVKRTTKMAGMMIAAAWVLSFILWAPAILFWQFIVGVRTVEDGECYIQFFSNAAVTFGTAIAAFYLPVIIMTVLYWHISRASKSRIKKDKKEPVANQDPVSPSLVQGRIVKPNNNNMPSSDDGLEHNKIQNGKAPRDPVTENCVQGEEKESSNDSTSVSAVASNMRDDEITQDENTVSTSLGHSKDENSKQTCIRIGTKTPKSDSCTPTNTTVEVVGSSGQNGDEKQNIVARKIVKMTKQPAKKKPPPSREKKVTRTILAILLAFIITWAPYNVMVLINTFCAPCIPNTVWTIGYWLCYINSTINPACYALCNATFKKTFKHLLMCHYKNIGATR

Mu-type opioid receptor = Mu-type opioid receptor (Homo sapiens, UniProt P35372)
[8] = biological target: Voltage-gated inwardly rectifying potassium channel KCNH2 (Homo sapiens, UniProt Q12809); format: functional
D(3) dopamine receptor = D(3) dopamine receptor (Homo sapiens, UniProt P35462)
Thromboxane A2 receptor [9] = biological target: T1, Thromboxane A2 receptor; format: functional, cell-based; remark: listed apart in the source
[10] = biological target: T4, 5-hydroxytryptamine receptor 1A (Homo sapiens, UniProt P08908)
T4 sequence (P08908 whole entry): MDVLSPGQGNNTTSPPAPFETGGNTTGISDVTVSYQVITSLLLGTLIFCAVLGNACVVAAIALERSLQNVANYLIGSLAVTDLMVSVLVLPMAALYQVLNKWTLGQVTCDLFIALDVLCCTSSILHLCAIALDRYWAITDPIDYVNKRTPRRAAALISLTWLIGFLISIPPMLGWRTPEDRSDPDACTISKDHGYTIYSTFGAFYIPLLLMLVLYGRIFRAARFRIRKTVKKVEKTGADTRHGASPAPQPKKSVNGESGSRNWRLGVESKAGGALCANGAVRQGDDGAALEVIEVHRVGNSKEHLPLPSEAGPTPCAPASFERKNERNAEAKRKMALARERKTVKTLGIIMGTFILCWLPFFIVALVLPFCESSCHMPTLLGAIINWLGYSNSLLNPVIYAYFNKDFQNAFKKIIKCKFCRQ

Histamine H3 receptor = Histamine H3 receptor (Homo sapiens, UniProt Q9Y5N1)
Also: assay procedure not described here.

Sodium-dependent noradrenaline transporter, sequence (P23975 whole entry): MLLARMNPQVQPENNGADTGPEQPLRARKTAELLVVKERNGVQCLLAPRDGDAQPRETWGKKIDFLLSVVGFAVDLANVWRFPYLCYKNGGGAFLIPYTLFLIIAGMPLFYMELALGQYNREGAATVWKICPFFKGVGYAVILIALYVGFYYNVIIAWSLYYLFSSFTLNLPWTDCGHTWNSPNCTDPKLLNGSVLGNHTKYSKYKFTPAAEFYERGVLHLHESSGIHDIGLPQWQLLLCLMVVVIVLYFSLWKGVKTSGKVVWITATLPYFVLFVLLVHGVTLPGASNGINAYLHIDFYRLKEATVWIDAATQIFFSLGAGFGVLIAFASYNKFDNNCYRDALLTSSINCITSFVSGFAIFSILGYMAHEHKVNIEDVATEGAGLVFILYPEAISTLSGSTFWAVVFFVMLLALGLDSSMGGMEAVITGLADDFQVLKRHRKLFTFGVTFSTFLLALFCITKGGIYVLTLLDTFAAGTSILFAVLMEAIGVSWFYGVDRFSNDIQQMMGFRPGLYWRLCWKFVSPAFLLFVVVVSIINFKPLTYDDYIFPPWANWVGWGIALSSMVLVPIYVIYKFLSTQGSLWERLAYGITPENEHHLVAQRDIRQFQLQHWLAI
Bile salt export pump, sequence (O95342 whole entry): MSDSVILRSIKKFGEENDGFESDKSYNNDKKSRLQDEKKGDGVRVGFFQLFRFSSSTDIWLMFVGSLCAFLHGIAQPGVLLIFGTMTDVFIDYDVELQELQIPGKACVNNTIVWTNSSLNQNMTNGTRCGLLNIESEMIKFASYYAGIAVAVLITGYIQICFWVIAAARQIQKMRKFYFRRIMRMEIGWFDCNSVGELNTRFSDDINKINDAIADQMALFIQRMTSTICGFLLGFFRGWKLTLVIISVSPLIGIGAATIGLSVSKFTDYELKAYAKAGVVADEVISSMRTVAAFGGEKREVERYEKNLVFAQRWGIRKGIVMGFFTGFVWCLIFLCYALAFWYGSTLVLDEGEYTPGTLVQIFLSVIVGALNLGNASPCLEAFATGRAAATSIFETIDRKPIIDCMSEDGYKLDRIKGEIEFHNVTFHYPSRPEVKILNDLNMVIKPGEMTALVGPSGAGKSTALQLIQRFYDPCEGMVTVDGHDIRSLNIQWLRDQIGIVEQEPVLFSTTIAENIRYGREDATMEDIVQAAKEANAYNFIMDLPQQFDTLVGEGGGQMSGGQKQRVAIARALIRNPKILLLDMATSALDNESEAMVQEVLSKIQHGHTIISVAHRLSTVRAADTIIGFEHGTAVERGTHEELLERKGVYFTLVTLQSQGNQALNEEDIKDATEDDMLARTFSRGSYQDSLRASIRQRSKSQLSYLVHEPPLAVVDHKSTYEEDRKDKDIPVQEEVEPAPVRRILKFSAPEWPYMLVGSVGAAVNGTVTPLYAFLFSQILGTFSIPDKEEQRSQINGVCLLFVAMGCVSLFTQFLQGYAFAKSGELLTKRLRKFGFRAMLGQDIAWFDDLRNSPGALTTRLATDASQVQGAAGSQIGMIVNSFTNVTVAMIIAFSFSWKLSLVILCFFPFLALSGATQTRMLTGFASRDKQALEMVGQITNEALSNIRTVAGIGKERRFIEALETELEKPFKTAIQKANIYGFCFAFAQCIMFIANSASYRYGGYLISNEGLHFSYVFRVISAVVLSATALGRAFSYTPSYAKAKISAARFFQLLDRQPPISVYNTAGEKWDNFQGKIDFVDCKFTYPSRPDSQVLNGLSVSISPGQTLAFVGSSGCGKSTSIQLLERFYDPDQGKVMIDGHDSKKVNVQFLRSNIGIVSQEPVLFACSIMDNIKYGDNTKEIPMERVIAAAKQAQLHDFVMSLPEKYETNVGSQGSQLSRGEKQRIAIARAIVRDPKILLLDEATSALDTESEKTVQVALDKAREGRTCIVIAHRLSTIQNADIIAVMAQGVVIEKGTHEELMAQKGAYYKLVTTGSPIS
Mu-type opioid receptor, sequence (P35372 whole entry): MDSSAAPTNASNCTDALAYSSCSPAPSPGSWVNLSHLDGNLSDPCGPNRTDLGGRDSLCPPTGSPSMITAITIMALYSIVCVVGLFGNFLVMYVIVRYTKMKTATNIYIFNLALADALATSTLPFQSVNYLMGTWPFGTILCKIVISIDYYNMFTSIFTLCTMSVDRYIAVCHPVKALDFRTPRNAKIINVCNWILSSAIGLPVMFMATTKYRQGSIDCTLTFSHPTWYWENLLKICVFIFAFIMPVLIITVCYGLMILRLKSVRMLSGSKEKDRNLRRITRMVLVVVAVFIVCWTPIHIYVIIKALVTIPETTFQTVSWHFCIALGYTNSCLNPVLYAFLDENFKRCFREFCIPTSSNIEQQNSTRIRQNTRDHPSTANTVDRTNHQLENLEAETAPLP
Prostaglandin G/H synthase 1, sequence (P23219 whole entry): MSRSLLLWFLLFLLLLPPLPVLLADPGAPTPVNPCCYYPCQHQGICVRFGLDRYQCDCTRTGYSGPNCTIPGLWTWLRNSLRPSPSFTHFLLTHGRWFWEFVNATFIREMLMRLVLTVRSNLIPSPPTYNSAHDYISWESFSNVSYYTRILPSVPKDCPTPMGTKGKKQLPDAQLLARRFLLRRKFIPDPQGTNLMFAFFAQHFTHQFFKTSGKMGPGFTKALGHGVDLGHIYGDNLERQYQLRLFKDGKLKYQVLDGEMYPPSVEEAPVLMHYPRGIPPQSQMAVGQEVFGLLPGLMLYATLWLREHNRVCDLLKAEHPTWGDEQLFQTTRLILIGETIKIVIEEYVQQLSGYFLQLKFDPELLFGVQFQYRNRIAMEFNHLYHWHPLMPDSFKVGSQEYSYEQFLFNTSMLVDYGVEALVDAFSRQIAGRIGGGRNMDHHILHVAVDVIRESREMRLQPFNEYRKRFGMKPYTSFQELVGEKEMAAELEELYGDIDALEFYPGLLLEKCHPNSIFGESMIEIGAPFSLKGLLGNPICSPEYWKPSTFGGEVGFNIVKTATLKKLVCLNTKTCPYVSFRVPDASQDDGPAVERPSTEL
Acetylcholinesterase, sequence (P22303 whole entry): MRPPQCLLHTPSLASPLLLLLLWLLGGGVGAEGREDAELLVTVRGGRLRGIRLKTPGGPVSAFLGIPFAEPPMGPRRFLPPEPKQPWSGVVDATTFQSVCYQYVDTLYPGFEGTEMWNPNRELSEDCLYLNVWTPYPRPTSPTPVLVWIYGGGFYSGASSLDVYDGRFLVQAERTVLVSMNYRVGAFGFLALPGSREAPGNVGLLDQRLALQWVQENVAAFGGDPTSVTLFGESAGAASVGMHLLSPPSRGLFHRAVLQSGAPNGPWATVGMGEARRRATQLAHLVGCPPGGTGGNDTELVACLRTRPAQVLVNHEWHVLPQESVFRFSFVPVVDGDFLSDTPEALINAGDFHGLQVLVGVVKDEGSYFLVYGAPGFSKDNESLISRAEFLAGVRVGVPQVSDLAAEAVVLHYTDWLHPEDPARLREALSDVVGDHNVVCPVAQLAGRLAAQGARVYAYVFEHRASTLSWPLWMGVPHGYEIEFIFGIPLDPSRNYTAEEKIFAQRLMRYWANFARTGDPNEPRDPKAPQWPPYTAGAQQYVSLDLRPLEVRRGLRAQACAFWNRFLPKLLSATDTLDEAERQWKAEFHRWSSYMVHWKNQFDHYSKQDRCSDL
Voltage-gated inwardly rectifying potassium channel KCNH2, sequence (Q12809 whole entry): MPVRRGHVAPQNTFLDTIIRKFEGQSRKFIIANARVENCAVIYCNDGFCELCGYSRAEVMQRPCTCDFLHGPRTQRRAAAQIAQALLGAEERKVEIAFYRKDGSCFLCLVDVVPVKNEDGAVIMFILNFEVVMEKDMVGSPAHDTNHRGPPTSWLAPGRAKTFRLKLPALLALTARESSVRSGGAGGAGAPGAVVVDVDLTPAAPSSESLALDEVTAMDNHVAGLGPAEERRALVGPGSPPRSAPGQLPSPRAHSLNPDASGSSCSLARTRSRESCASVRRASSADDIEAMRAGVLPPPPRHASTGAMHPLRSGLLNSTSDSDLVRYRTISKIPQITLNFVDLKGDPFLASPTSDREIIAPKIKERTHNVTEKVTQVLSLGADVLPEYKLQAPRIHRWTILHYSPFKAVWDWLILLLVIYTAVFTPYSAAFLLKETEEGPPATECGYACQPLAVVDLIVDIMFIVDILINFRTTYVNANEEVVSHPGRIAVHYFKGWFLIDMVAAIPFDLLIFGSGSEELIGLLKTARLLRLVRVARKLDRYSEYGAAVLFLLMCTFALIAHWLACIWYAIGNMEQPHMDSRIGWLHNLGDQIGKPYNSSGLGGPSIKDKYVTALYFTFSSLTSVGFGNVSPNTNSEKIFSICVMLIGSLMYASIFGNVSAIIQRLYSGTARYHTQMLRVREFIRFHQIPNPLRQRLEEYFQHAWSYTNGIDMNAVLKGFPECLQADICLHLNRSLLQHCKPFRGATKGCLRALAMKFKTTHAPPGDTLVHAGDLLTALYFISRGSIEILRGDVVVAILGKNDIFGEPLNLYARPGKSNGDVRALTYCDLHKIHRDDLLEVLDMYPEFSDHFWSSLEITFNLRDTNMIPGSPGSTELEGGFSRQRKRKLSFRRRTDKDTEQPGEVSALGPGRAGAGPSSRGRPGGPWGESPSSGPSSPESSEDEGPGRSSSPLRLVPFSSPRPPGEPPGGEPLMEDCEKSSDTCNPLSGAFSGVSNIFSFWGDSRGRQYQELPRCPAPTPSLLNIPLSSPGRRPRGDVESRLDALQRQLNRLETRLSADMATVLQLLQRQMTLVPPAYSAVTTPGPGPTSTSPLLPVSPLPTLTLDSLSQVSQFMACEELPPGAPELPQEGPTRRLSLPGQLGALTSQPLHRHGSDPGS

| SMILES | AC50 [1] | AC50 (Thromboxane A2 receptor [2]) | AC50 (Prothrombin) | AC50 (Bile salt export pump) | AC50 [3] | AC50 (Acetylcholinesterase) | AC50 [4] | AC50 (D(1A) dopamine receptor) | AC50 [5] | AC50 [6] | AC50 [7] | AC50 (Mu-type opioid receptor) | AC50 [8] | AC50 (D(3) dopamine receptor) | AC50 (Thromboxane A2 receptor [9]) | AC50 [10] | AC50 (Histamine H3 receptor) |
| --- | --- | --- | --- | --- | --- | --- | --- | --- | --- | --- | --- | --- | --- | --- | --- | --- | --- |
| C[C@@H]1C[C@H]2[C@@H]3CCC4=CC(=O)C=C[C@]4(C)[C@@]3(Cl)[C@@H](O)C[C@]2(C)[C@@]1(OC(=O)c1ccco1)C(=O)CCl [MOMETASONE FUROATE] | > 30 µM | > 30 µM | > 30 µM | 2.4 µM | > 30 µM | > 30 µM | > 30 µM | > 30 µM | 13.7 µM | > 30 µM | > 30 µM | > 30 µM | > 30 µM | > 30 µM | > 30 µM | > 30 µM | > 30 µM |
| Cc1ccccc1C(=O)Nc1ccc(C(=O)N2CCCC(N(C)C)c3ccccc32)cc1 (configuration not stated) [MOZAVAPTAN] | > 30 µM | > 30 µM | > 30 µM | 14 µM | > 30 µM | > 30 µM | > 30 µM | > 30 µM | > 30 µM | > 30 µM | > 30 µM | 2.48 µM | > 30 µM | > 30 µM | > 30 µM | 5.8 µM | > 30 µM |
| O=C(O)c1cc(/N=N/c2ccc(O)c(C(=O)O)c2)ccc1O [OLSALAZINE] | > 30 µM | > 30 µM | > 30 µM | > 300 µM | > 30 µM | > 30 µM | > 30 µM | > 30 µM | > 30 µM | > 30 µM | > 30 µM | > 30 µM | > 30 µM | > 30 µM | > 30 µM | > 30 µM | > 30 µM |
| CCOC(=O)C1=C[C@@H](OC(CC)CC)[C@H](NC(C)=O)[C@@H](N)C1 [OSELTAMIVIR] | > 30 µM | > 30 µM | > 30 µM | > 300 µM | > 30 µM | > 30 µM | > 30 µM | > 30 µM | > 30 µM | > 30 µM | > 30 µM | > 30 µM | > 30 µM | > 30 µM | > 30 µM | > 30 µM | > 30 µM |
| Cc1onc(-c2ccccc2)c1C(=O)N[C@@H]1C(=O)N2[C@@H]1SC(C)(C)[C@@H]2C(=O)O [OXACILLIN] | > 30 µM | > 30 µM | > 30 µM | 220 µM | > 30 µM | > 30 µM | > 30 µM | > 30 µM | > 30 µM | > 30 µM | > 30 µM | > 30 µM | > 30 µM | > 30 µM | > 30 µM | > 30 µM | > 30 µM |
| OC[C@@H](O)[C@@H](O)[C@H](O)[C@@H](O)CO [SORBITOL] | > 30 µM | > 30 µM | > 30 µM | > 300 µM | > 30 µM | > 30 µM | > 30 µM | > 30 µM | > 30 µM | > 30 µM | > 30 µM | > 30 µM | > 30 µM | > 30 µM | > 30 µM | > 30 µM | > 30 µM |
